Source: patent publication US7910091B2, “System for trapping flying insects with attractant lures” (Woodstream Corporation, priority 2002, dated 2011)

How the values were obtained:
[1] = cited from earlier work
A. albopictus [2] = assay: Hawaii field test of lactic acid lures in Mosquito Magnet traps, A. albopictus catch; type: in vivo, Aedes albopictus; conditions: w/CO2, average caught in 48 hours
Method: (§1) […] Sample vials containing lactic acid impregnated frits were replaced every 2 days to ensure measurement uniformity. Measured release rates were approximately 4.0 mg/hr to 20 mg/hr. Controls were run with a Professional trap device lacking a lactic acid lure. The number of mosquitoes retained in the catch bag of the insect trapping devices was quantitated for test sample and control runs.
(§2) The comparison between lactic acid/CO2 and CO2 only used as lures in Mosquito Magnet® Professional (PRO) and Liberty traps are shown in Table 8.

mosquitoes [3] = assay: China test, Mosquito Magnet Liberty traps, total catch of mosquitoes; type: in vivo; conditions: Wuhu
Description: (§3) Mosquito types found in China include Culex pipiens pallens (majority), A. albopictus, Anopheles sinensis (minority), and […] subalbatus (minority). […] The daily mosquito catch depended mainly on the seasonal distribution of mosquitoes. […] Mosquito Magnet® Liberty traps were used in this example.

flying insects = assay: Additional trap trials: lactic acid lures vs 1-octen-3-ol, Liberty trap with and without lure (FIG. 5); type: in vivo; conditions: for Insect capture counts (FIG. 5), in words: compared with CO2 only control / with lactic acid lures
Description: Also surprising were the results of a trial running a Mosquito Magnet® Liberty trap (American Biophysics Corporation, East Greenwich, R.I., USA) with and without lactic acid lures. […] The addition of a lactic acid lure increased the capture count to about 4,700 flying insects, a surprising enhancement over the effectiveness of the device using CO2 alone. The trial test data are graphically depicted in FIG. 5.

A. Albopictus [4] = assay: China test, Mosquito Magnet Liberty traps, catch of A. albopictus; type: in vivo; conditions: with CO2, Liberty trap, July 2002, Wuhu, catching in 12 hours
Description: as §3

mosquitoes [5] = assay: Hawaii field test of lactic acid lures in Mosquito Magnet traps, total mosquito catch; type: in vivo, Culex quinquefasciatus Aedes albopictus, et al.; conditions: w/CO2, average caught in 48 hours
Method: as §1, §2

[6] = Acute toxicity LD50 oral rat; type: in vivo
Description: A particularly beneficial aspect of using biochemical lures to trap mosquitoes is the large margin of safety associated therewith, particularly when compared with traditional chemical attractants.

[7] = cited from earlier work; remark: listed apart in the source
[8] = Laboratory release rate test of lactic acid from impregnated frit cartridges in exhaust nozzle; type: physicochemical
Description: Packaging of the sample L-(+)-lactic acid solution was selected with the goal of maximizing efficient dispersal of the lactic acid in the CO2 exhaust plume of the insect trapping device. […] Each frit was impregnated with was 3.5 g to 4.5 g of liquid lactic acid. Release rate testing was initially performed under laboratory conditions to assess the dispersal characteristics of L-(+)-lactic acid from impregnated frit cartridges. The sample vial with its cap removed was placed in a “basket-style” housing having numerous apertures/openings to permit release of lactic acid vapors from the impregnated frit. The housing of the supplemental insect attractant element was inserted into the exhaust nozzle of an insect trapping device. Lactic acid release was measured at two temperatures for comparison purposes. Exhaust plume temperature was set at 87° F. and then 97°°F., accordingly. […] At a constant temperature, here 87°°F., the release rate of lactic acid decreased with time. […] The useful life of a frit cartridge impregnated with liquid L-(+)-lactic acid may vary depending upon the amount of attractant initially loaded into the cartridge, and the environmental conditions to which the cartridge is subjected. The ultimate use- or release-time of a given cartridge can be tailored to meet the release rate needs of a particular environmental condition. […] Longer periods of release are anticipated for polymeric formulations of attractant compositions.

[9] = @ 25° C.; cited from earlier work
Culex pipiens pallens = assay: China indoor test of Lurex; type: in vivo; conditions: CO2 without Lurex, Hefei basement, July 2002, catching in 24 hours
Description: as §3

[10] = PRO trap, February to March 2002
[11] = PRO trap, January 2002, listed as Liquid lactic acid
[12] = Liberty trap, February to March 2002
[13] = PRO trap, January 2002, higher release rate

Compound: C=CC(O)CCCCC (stereo not shown) [1-octen-3-ol, reference compound]
- LD50/oral/rat [1]: 340 mg/kg
- Catch of A. Albopictus (A. albopictus [2]; [10]): 13
- Sensitivity of mosquitoes in China to the chemical compared to CO2, in words (mosquitoes [3]; Hefei, Shanghai, Liberty traps): do not seem significantly sensitive
- Total catch of mosquitoes (mosquitoes [3]; with CO2, Liberty trap, July 2002, China, catching in 12 hours): 196
- Insect capture counts (FIG. 5), in words (flying insects): quite inefficient
- Flying insects trapped (flying insects; one trial, over a two-day period, CO2 plume generating devices): less than 100
- Catch of A. Albopictus (A. Albopictus [4]): 14
- Total catch of mosquitoes (mosquitoes [5]; [10]): 92

Compound: CC(O)C(=O)O (stereo not drawn) [FCC 88, L(+)-lactic acid, 2-hydroxy-propionic acid]
- Times less toxic than 1-octen-3-ol [6]: about 11 times
- Catch of A. Albopictus (A. albopictus [2]; [11]): 26
- Capture count of flying insects (flying insects; Liberty trap with CO2 plus lure, two-day period): about 4,700
- Insect capture counts (FIG. 5), in words (flying insects): substantially improve insect capture counts
- Total catch of mosquitoes (mosquitoes [5]; [11]): 313.5
- LD50/dermal/rabbit [7]: 2000 mg/kg
- Release rate ([8]; 87° F., time released 0-48 hrs, impregnated frit): 4.0 to 20 mg/h
- Release rate ([8]; 87° F., time released 3-8 days, impregnated frit): 2.0 to 3.5 mg/h
- Release rate ([8]; 97-100° F., 5-9th day, same sample tested before at 87° F.): 5.0 to 7.1 mg/h
- Estimated time of use of cartridge ([8]; cartridge of 3.5 g liquid L-(+)-lactic acid, average release rate 5 mg/hr to 10 mg/hr): 2 to 4 weeks
- pH [9]: <2 @ 25 °C

Compound: O=C=O [CO2, carbon dioxide]
- Total catch of mosquitoes (Culex pipiens pallens) (Culex pipiens pallens): 605

Compound: CC(O)C(=O)O (stereo not shown) [Solid lactic acid]
- Catch of A. Albopictus (A. albopictus [2]; [12]): 12.7
- Catch of A. Albopictus (A. albopictus [2]; [10]): 52
- Catch of A. Albopictus (A. albopictus [2]; PRO trap, January 2002): 30
- Catch of A. Albopictus (A. albopictus [2]; [13]): 116
- Total catch of mosquitoes (mosquitoes [5]; [12]): 2537
- Total catch of mosquitoes (mosquitoes [5]; [10]): 243
- Total catch of mosquitoes (mosquitoes [5]; PRO trap, January 2002): 136
- Total catch of mosquitoes (mosquitoes [5]; [13]): 384
